Measurements published in the supplement of paper PMC8671470.

Key:
Settings in all cases: 72 h
[1] = system: myeloid leukemia patient primary cells Pat.2; test: cell viability (% survival relative to DMSO control); higher = less cytotoxic
Method in brief: (§1)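 Mononuclear cells from patients with AML or CML were thawed, purified on Ficoll and placed in RPMI 1640 with 10% FBS at 10,000 cells/well on 384-well plates. The plates came pre-printed with 70 compounds at five tenfold concentrations spanning 1–10,000 nM, in duplicate, and cells were exposed for 72 h. CellTiter-Glo gave viability, scaled between DMSO wells and wells with 10 μM proteasome inhibitor. Where reported, area under the curve was obtained from log-logistic fits with four parameters using the drc and PharmacoGx R packages.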

[2] = system: myeloid leukemia patient primary cells Pat.14; test: as above
Method in brief: as §1

[3] = system: myeloid leukemia patient primary cells Pat.12; test: as above
Method in brief: as §1

[4] = system: myeloid leukemia patient primary cells Pat.8; test: as above
Method in brief: as §1

[5] = system: myeloid leukemia patient primary cells Pat.15; test: as above
Method in brief: as §1

[6] = system: myeloid leukemia patient primary cells Pat.13; test: as above
Method in brief: as §1

HL-60 [7] = test: cell viability (% survival relative to DMSO control); higher = less cytotoxic
Method in brief: (§2)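 Four-parameter log-logistic fits in drc and PharmacoGx supplied area under the curve where it is given. Underlying viability came from CellTiter-Glo, normalised to DMSO and proteasome-inhibitor wells, with the proteasome inhibitor at 10 μM. HL-60 cells in RPMI 1640 plus 10% FBS had been rescreened against the full library at five tenfold concentrations of 1–10,000 nM, in duplicate on 384-well plates, with DMSO or 100 nM of one of three metabolic inhibitors, for 72 h at 37 °C, 5% CO2.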

[8] = system: myeloid leukemia patient primary cells Pat.5; test: area under dose-response curve (viability, 1 nM-10 uM) (fraction (0-1)); higher = more sensitive
Description: (§3)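 AUC (0–1, higher = more sensitive) of the 5-point dose–response (1 nM–10 µM, 72 h, CellTiter-Glo) in primary AML/CML patient mononuclear cells. 0.030103 is the floor for inactive compounds.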

[9] = system: myeloid leukemia patient primary cells Pat.3; test: as above
Description: as §3

[10] = system: myeloid leukemia patient primary cells Pat.4; test: as above
Description: as §3

[11] = system: myeloid leukemia patient primary cells Pat.2; test: as above
Description: as §3

[12] = system: myeloid leukemia patient primary cells Pat.14; test: as above
Description: as §3

[13] = system: myeloid leukemia patient primary cells Pat.7; test: as above
Description: as §3

[14] = system: myeloid leukemia patient primary cells Pat.12; test: as above
Description: as §3

[15] = system: myeloid leukemia patient primary cells Pat.6; test: as above
Description: as §3

[16] = system: myeloid leukemia patient primary cells Pat.11; test: as above
Description: as §3

[17] = system: myeloid leukemia patient primary cells Pat.8; test: as above
Description: as §3

[18] = system: myeloid leukemia patient primary cells Pat.10; test: as above
Description: as §3

[19] = system: myeloid leukemia patient primary cells Pat.9; test: as above
Description: as §3

[20] = system: myeloid leukemia patient primary cells Pat.1; test: as above
Description: as §3

[21] = system: myeloid leukemia patient primary cells Pat.15; test: as above
Description: as §3

[22] = system: myeloid leukemia patient primary cells Pat.13; test: as above
Description: as §3

HL-60 [23] = test: area under dose-response curve (viability, 1 nM-10 uM) (fraction (0-1)); higher = more sensitive
Method in brief: as §2

Cc1cc2c(C(C)C)c(O)c(O)c(C=O)c2c(O)c1-c1c(C)cc2c(C(C)C)c(O)c(O)c(C=O)c2c1O [Gossypol]
Settings	area under dose-response curve, co-treatment: AZD3965 100 nM	area under dose-response curve, co-treatment: DMSO vehicle	area under dose-response curve, co-treatment: GSK2194069 100 nM	area under dose-response curve, co-treatment: pictilisib 100 nM	cell viability, 1 nM [%]	cell viability, 10 nM [%]	cell viability, 100 nM [%]	cell viability, 1000 nM [%]	cell viability, 10000 nM [%]
HL-60 [23]	0.123	0.124	0.154	0.145	–	–	–	–	–
[1]	–	–	–	–	96.6	92.2	93	80	34.6
[2]	–	–	–	–	> 100	42.9	69.1	0.583	63.3
[3]	–	–	–	–	98.6	94	88.1	99.1	50.5
[4]	–	–	–	–	82.2	89.7	89.9	84.7	6.5
[5]	–	–	–	–	98.2	85.9	89.7	95.7	27.3
[6]	–	–	–	–	87.8	69.7	83.6	75.4	15

cell viability [%], HL-60 [7]
Settings	0.001 µM	0.01 µM	0.1 µM	1 µM	10 µM
co-treatment: AZD3965 100 nM	101	106	96.1	102	2.22
co-treatment: DMSO vehicle	101	104	96.3	102	2.19
co-treatment: GSK2194069 100 nM	107	104	90	87.6	2.81
co-treatment: pictilisib 100 nM	104	100	93.97	91.4	1.94

Settings	area under dose-response curve
[8]	0.712
[9]	0.428
[10]	0.117
[11]	0.112
[12]	0.386
[13]	0.476
[14]	0.0353
[15]	0.0898
[16]	0.135
[17]	0.123
[18]	0.641
[19]	0.803
[20]	0.135
[21]	0.0654
[22]	0.107

CO[C@H]1C[C@@H]2CC[C@@H](C)[C@@](O)(O2)C(=O)C(=O)N2CCCC[C@H]2C(=O)O[C@H]([C@H](C)C[C@@H]2CC[C@@H](OC(=O)C(C)(CO)CO)[C@H](OC)C2)CC(=O)[C@H](C)/C=C(\C)[C@@H](O)[C@@H](OC)C(=O)[C@H](C)C[C@H](C)/C=C/C=C/C=C/1C [Temsirolimus]
Settings	area under dose-response curve, co-treatment: AZD3965 100 nM	area under dose-response curve, co-treatment: DMSO vehicle	area under dose-response curve, co-treatment: GSK2194069 100 nM	area under dose-response curve, co-treatment: pictilisib 100 nM	cell viability, 1 nM [%]	cell viability, 10 nM [%]	cell viability, 100 nM [%]	cell viability, 1000 nM [%]	cell viability, 10000 nM [%]
HL-60 [23]	< 0.0301	< 0.0301	< 0.0301	< 0.0301	–	–	–	–	–
[1]	–	–	–	–	79.1	69	69.6	80.6	63
[2]	–	–	–	–	73.7	58.7	48.6	71.6	5.69
[3]	–	–	–	–	95.8	98.4	93.6	90.6	96.4
[4]	–	–	–	–	83.3	55.6	78.2	88.4	55.5
[5]	–	–	–	–	69.7	47.8	38.4	39.2	21.8
[6]	–	–	–	–	74.5	65.6	61.8	92	55.3

cell viability [%], HL-60 [7]
Settings	0.001 µM	0.01 µM	0.1 µM	1 µM	10 µM
co-treatment: AZD3965 100 nM	99.9	97.186	101	92.3	86.7
co-treatment: DMSO vehicle	101	96.3	97.65	90.3	100
co-treatment: GSK2194069 100 nM	92.3	87.52	103.1	83.261	96.5
co-treatment: pictilisib 100 nM	94.1	81	99.1	81.02	91.4

Settings	area under dose-response curve
[8]	0.798
[9]	0.123
[10]	0.206
[11]	< 0.0301
[12]	0.142
[13]	0.146
[14]	< 0.0301
[15]	< 0.0301
[16]	< 0.0301
[17]	< 0.0301
[18]	0.123
[19]	0.608
[20]	0.0628
[21]	0.584
[22]	< 0.0301

Cc1[nH]nc(C(F)(F)F)c1Cc1sc2c(c1C(=O)N1C[C@](C)(O)CO1)c(=O)n(C)c(=O)n2C(C)C [AZD3965]
Settings	area under dose-response curve, co-treatment: AZD3965 100 nM	area under dose-response curve, co-treatment: DMSO vehicle	area under dose-response curve, co-treatment: GSK2194069 100 nM	area under dose-response curve, co-treatment: pictilisib 100 nM	cell viability, 1 nM [%]	cell viability, 10 nM [%]	cell viability, 100 nM [%]	cell viability, 1000 nM [%]	cell viability, 10000 nM [%]
HL-60 [23]	< 0.0301	< 0.0301	< 0.0301	< 0.0301	–	–	–	–	–
[1]	–	–	–	–	97	87.2	99	96.3	98
[2]	–	–	–	–	84.2	39.1	> 100	89.9	98.9
[3]	–	–	–	–	93.3	94	> 100	99.9	98.2
[4]	–	–	–	–	86.7	74.6	89.9	92.5	87.8
[5]	–	–	–	–	84	98.8	92.7	96.7	93.6
[6]	–	–	–	–	85.6	69.2	93.7	97.4	81.1

cell viability [%], HL-60 [7]
Settings	0.001 µM	0.01 µM	0.1 µM	1 µM	10 µM
co-treatment: AZD3965 100 nM	92.7	98.1	96	92.2	102
co-treatment: DMSO vehicle	102	95.8	97.9	94.6	99.6
co-treatment: GSK2194069 100 nM	98	95.7	108	97.5	105
co-treatment: pictilisib 100 nM	89.3	97.7	109	97.9	112

Settings	area under dose-response curve
[8]	0.149
[9]	< 0.0301
[10]	< 0.0301
[11]	< 0.0301
[12]	< 0.0301
[13]	< 0.0301
[14]	< 0.0301
[15]	< 0.0301
[16]	< 0.0301
[17]	< 0.0301
[18]	0.167
[19]	< 0.0301
[20]	< 0.0301
[21]	< 0.0301
[22]	< 0.0301
